A value given as a limit tells only on which side of the number the result lay.

The target of one assay is AMPK. The assay can be described thus: AMPK activation, enzyme-linked immunosorbent assay. The assay is classed as biochemical. Conditions: Table 8, compounds of Table 1. The method in brief: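 AMPK activation by test compounds was measured by enzyme-linked immunosorbent assay.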
What is called EC50 is the concentration that produces a half-maximal response. Low readings indicate an effect from little substance, high ones a need for much substance. The compound `O=C(N[C@@H]1CCN(Cc2cccnc2)C1)c1cc2cc(OC3CCN(c4ccc(C(F)(F)F)cc4)CC3)ccc2o1` [Compound 1-123, (R)-N-(1-(pyridin-3-ylmethyl)pyrrolidin-3-yl)-5-(1-(4-(trifluoromethyl)phenyl)piperidin-4-yloxy)benzofuran-2-carboxamide] gave an EC50 of 100 to 500 nM. Still for that read-out and setting: to `O=C(NC1CCN(Cc2ccccc2)CC1)c1cc2cc(OC3CCN(c4ccc(OC(F)(F)F)cc4)CC3)ccc2o1` [Compound 1-80, N-(1-benzylpiperidin-4-yl)-5-(1-(4-(trifluoromethoxy)phenyl)piperidin-4-yloxy)benzofuran-2-carboxamide] belongs < 100 nM. The compound `O=C(N[C@@H]1CCN(Cc2ccncc2)C1)c1cc2cc(OC3CCN(c4ccc(C(F)(F)F)cc4)CC3)ccc2o1` [Compound 1-122, (R)-N-(1-(pyridin-4-ylmethyl)pyrrolidin-3-yl)-5-(1-(4-(trifluoromethyl)phenyl)piperidin-4-yloxy)benzofuran-2-carboxamide] returned an EC50 of 100 to 500 nM.

The compound `CN(C(=O)c1cc2cc(OC3CCN(c4ccc(C(F)(F)F)cc4)CC3)ccc2o1)C1CCNCC1` [Compound 1-103, N-methyl-N-(piperidin-4-yl)-5-(1-(4-(trifluoromethyl)phenyl)piperidin-4-yloxy)benzofuran-2-carboxamide] registered an EC50 of 1000 to 5000 nM. With `Cc1c(C(=O)NC2CCN(Cc3ccccc3C#N)CC2)oc2cc(OC3CCN(c4ccc(C(F)(F)F)cc4)CC3)ccc12` [Compound 1-67, N-(1-(2-cyanobenzyl)piperidin-4-yl)-3-methyl-6-(1-(4-(trifluoromethyl)phenyl)piperidin-4-yloxy)benzofuran-2-carboxamide], the EC50 is < 100 nM.

The assay is the same for the next values; noted with them: Table 9, compounds of Table 2.
As for `NC(=O)c1ccc(CN2CCc3[nH]c4ccc(C(=O)NC5CCN(Cc6ccncc6)CC5)cc4c3C2)cc1` [Compound 2-45, 2-(4-carbamoylbenzyl)-N-(1-(pyridin-4-ylmethyl)piperidin-4-yl)-2,3,4,5-tetrahydro-1H-pyrido[4,3-b]indole-8-carboxamide], the EC50 was > 100000 nM. Still for that read-out and setting: to `N#Cc1ccc(CN2CCC(NC(=O)c3ccc4[nH]c5c(c4c3)CN(Cc3ccc(F)cc3)CC5)CC2)cc1` [Compound 2-9, N-(1-(4-cyanobenzyl)piperidin-4-yl)-2-(4-fluorobenzyl)-2,3,4,5-tetrahydro-1H-pyrido[4,3-b]indole-8-carboxamide] belongs < 500 nM; to `O=C(NC1CCN(Cc2cccnc2)CC1)c1ccc2[nH]c3c(c2c1)CN(Cc1ccc(C(F)(F)F)cc1)CC3` [Compound 2-11, N-(1-(pyridin-3-ylmethyl)piperidin-4-yl)-2-(4-(trifluoromethyl)benzyl)-2,3,4,5-tetrahydro-1H-pyrido[4,3-b]indole-8-carboxamide], < 500 nM; to `O=C(NC1CCN(C(=O)Nc2ccc(C(F)(F)F)cc2)CC1)c1ccc2[nH]c3c(c2c1)CN(Cc1ccc(C(F)(F)F)cc1)CC3` [Compound 2-33, 2-(4-(trifluoromethyl)benzyl)-N-(1-(4-(trifluoromethyl)phenylcarbamoyl)piperidin-4-yl)-2,3,4,5-tetrahydro-1H-pyrido[4,3-b]indole-8-carboxamide], 1000 to 5000 nM.

The same assay, now with this note: Table 10, compounds of Table 3.
As to `N#Cc1ccc(CN2CCC(NC(=O)c3ccc(C(=O)NC4CCN(Cc5ccc(C(F)(F)F)cc5)CC4)cc3)CC2)cc1` [Compound 3-31, N^1-(1-(4-cyanobenzyl)piperidin-4-yl)-N^4-(1-(4-(trifluoromethyl)benzyl)piperidin-4-yl)terephthalamide], the concentration giving a half-maximal response (EC50) was < 100 nM.

`O=C(NC1CCN(Cc2ccncc2)CC1)c1cnc(OC2CCN(c3ccc(C(F)(F)F)cc3)CC2)cn1` [Compound 3-21, N-(1-(pyridin-4-ylmethyl)piperidin-4-yl)-5-(1-(4-(trifluoromethyl)phenyl)piperidin-4-yloxy)pyrazine-2-carboxamide]: the EC50 was < 100 nM.

The assay is the same for the next values; noted with them: Table 11, compounds of Table 4.
`CC(C)S(=O)(=O)c1ccc(N2CCN(C(=O)c3ccc(C(=O)NC4CCN(Cc5ccc(OC(F)(F)F)cc5)C[C@H]4F)cn3)CC2)cc1` (stereo partly drawn) [Compound 4-11, N-((3,4-trans)-3-fluoro-1-(4-(trifluoromethoxy)benzyl)piperidin-4-yl)-6-(4-(4-(isopropylsulfonyl)phenyl)piperazine-1-carbonyl)nicotinamide]: the EC50 is < 500 nM. Turning to `N#Cc1ccc(CN2CCC(NC(=O)c3ccc(C(=O)N4CCN(Cc5ccc(C#N)cc5)CC4)cn3)CC2)cc1` [Compound 4-1, 5-(4-(4-cyanobenzyl)piperazine-1-carbonyl)-N-(1-(4-cyanobenzyl)piperidin-4-yl)picolinamide], the EC50 is < 500 nM.

Staying with this assay, now noted: Table 12, compounds of Table 5.
For the compound `O=C(NC1CCN(Cc2ccncc2)CC1)c1cccc(OC2CCN(c3ccc(C(F)(F)F)cc3)CC2)c1` [Compound 5-87, N-(1-(pyridin-4-ylmethyl)piperidin-4-yl)-3-(1-(4-(trifluoromethyl)phenyl)piperidin-4-yloxy)benzamide], the EC50 was < 1000 nM. The same measure, in the same setting: to `O=C(NC1CCN(Cc2ccccc2)CC1)c1ccc(OC2CCN(C(=O)c3ccc(C(F)(F)F)cc3)CC2)c(Cl)c1` [Compound 5-18, N-(1-benzylpiperidin-4-yl)-3-chloro-4-(1-(4-(trifluoromethyl)benzoyl)piperidin-4-yloxy)benzamide] belongs < 1000 nM; to `N#Cc1ccc(CN2CCC(Oc3ccc(C(=O)NC4CCN(Cc5ccccc5)CC4)cc3F)CC2)cc1` [Compound 5-41, N-(1-benzylpiperidin-4-yl)-4-(1-(4-cyanobenzyl)piperidin-4-yloxy)-3-fluorobenzamide], < 1000 nM; to `N#Cc1ccc(CN2CCC(NC(=O)c3cccc(O[C@@H]4CCN(Cc5ccc(C(F)(F)F)cc5)C[C@H]4F)c3)CC2)cc1` [Compound 5-126, N-(1-(4-cyanobenzyl)piperidin-4-yl)-3-((3,4-trans)-3-fluoro-1-(4-(trifluoromethyl)benzyl)piperidin-4-yloxy)benzamide], < 1000 nM. Same read-out and setting: then `CC(C)(C)c1ccc(CN2CCC(Oc3ccc(C(=O)NC4CCN(Cc5ccccc5)CC4)cc3F)CC2)cc1` [Compound 5-20, N-(1-benzylpiperidin-4-yl)-3-fluoro-4-(1-(4-tert-butylbenzyl)piperidin-4-yloxy)benzamide], with < 1000 nM; and `Cn1cncc1CN1CCC(Oc2ccc(C(=O)NC3CCN(Cc4ccccc4)CC3)cc2)CC1` [Compound 5-4, N-(1-benzylpiperidin-4-yl)-4-(1-((1-methyl-1H-imidazol-5-yl)methyl)piperidin-4-yloxy)benzamide], with > 100000 nM.

The assay is the same for the next values; noted with them: Table 13, compounds of Table 6.
`CS(=O)(=O)c1ccc(CN2CCN(C(=O)c3ccc4cc(C(=O)NC5CCN(Cc6ccc(OC(F)(F)F)cc6)CC5)oc4c3)CC2)cc1` [Compound 6-4, 6-(4-(4-(methylsulfonyl)benzyl)piperazine-1-carbonyl)-N-(1-(4-(trifluoromethoxy)benzyl)piperidin-4-yl)benzofuran-2-carboxamide] had a concentration giving a half-maximal response (EC50) of 100 to 1000 nM. Regarding `N#Cc1ccc(CN2CCC(NC(=O)c3cc4cc(C(=O)N5CCN(c6ccc(F)cc6)CC5)ccc4o3)CC2)cc1` [Compound 6-86, N-(1-(4-cyanobenzyl)piperidin-4-yl)-5-(4-(4-fluorophenyl)piperazine-1-carbonyl)benzofuran-2-carboxamide], the EC50 was < 100 nM. Still for that read-out and setting: to `CS(=O)(=O)c1ccc(CN2CCN(C(=O)c3ccc4oc(C(=O)NC5CCN(Cc6cccc(C(F)(F)F)c6)CC5)cc4c3)CC2)cc1` [Compound 6-147, 5-(4-(4-(methylsulfonyl)benzyl)piperazine-1-carbonyl)-N-(1-(3-(trifluoromethyl)benzyl)piperidin-4-yl)benzofuran-2-carboxamide] belongs < 100 nM; to `CC(C)S(=O)(=O)c1ccc(N2CCN(C(=O)c3ccc4oc(C(=O)NC5CCN(Cc6ccc(C#N)cc6)CC5)cc4c3)CC2)cc1` [Compound 6-108, N-(1-(4-cyanobenzyl)piperidin-4-yl)-5-(4-(4-(isopropylsulfonyl)phenyl)piperazine-1-carbonyl) benzofuran-2-carboxamide], < 100 nM; to `O=C(Nc1ccc(Oc2ccc(F)cc2)nc1)c1cc2cc(C(=O)N3CCC(Oc4ccc(C(F)(F)F)cc4)CC3)ccc2o1` [Compound 6-26, N-(6-(4-fluorophenoxy)pyridin-3-yl)-5-(4-(4-(trifluoromethyl)phenoxy)piperidine-1-carbonyl) benzofuran-2-carboxamide], < 100 nM.

Consider `COc1ccc(CN2CCC(NC(=O)c3cc4cc(C(=O)N5CCN(Cc6ccc(S(C)(=O)=O)c(C)c6)CC5)ccc4o3)CC2)cc1F` [Compound 6-130, N-(1-(3-fluoro-4-methoxybenzyl)piperidin-4-yl)-5-(4-(3-methyl-4-(methylsulfonyl)benzyl)piperazine-1-carbonyl) benzofuran-2-carboxamide], for which the EC50 was < 100 nM.

The assay is the same for the next values; noted with them: Table 14, compounds of Table 7.
In turn, `COc1ccc(C(=O)C2CCN(C(=O)c3ccc(C(=O)NC4CCN(Cc5ccc(C#N)cc5C)C[C@H]4F)cn3)CC2)cc1` (stereo partly drawn) [Compound 7-56, N-((3,4-trans)-1-(4-cyano-2-methylbenzyl)-3-fluoropiperidin-4-yl)-6-(4-(4-methoxybenzoyl)piperidine-1-carbonyl)nicotinamide] gave an EC50 of 1000 to 10000 nM. Consider `COc1ccc(C(=O)C2CCN(C(=O)c3ccc(C(=O)NC4CCNCC4)cn3)CC2)cc1` [Compound 7-115, 6-(4-(4-methoxybenzoyl)piperidine-1-carbonyl)-N-(piperidin-4-yl)nicotinamide], for which the EC50 was 50000 to 100000 nM. For `COc1ccc(C(=O)C2CCN(C(=O)c3ccc(C(=O)NC4CCN(Cc5ccc(C#N)cc5)C[C@@H]4C)cn3)CC2)cc1` (stereo partly drawn) [Compound 7-93, N-((3,4-cis)-1-(4-cyanobenzyl)-3-methylpiperidin-4-yl)-6-(4-(4-methoxybenzoyl)piperidine-1-carbonyl)nicotinamide], the EC50 was < 1000 nM. Turning to `COc1ccc(C(=O)C2CCN(C(=O)c3ccc(C(=O)NC4CCN(Cc5ccc(C#N)cc5)CC4(C)C)cn3)CC2)cc1` (centres unmarked) [Compound 7-84, N-(1-(4-cyanobenzyl)-3,3-dimethylpiperidin-4-yl)-6-(4-(4-methoxybenzoyl)piperidine-1-carbonyl)nicotinamide], the EC50 is < 1000 nM.

For the origin of these results see patent publication US9409884B2 (Rigel Pharmaceuticals, Inc., priority 2012, dated 2016).
